Tests used:
[1] = system: ENR+CD organoids (ISC to Paneth cell differentiation); assay: Primary screen: basal (non-stimulated) lysozyme secretion LYZ.NS, 2.5-D 384-well ENR+CD organoid differentiation; type: cell-based, mouse; conditions: primary screen; for Z.LYZ.NS: standard z score
From the text: (§1) High-throughput screening.

[2] = system: ENR+CD organoids (ISC to Paneth cell differentiation); assay: Primary screen: CCh-stimulated lysozyme secretion LYZ.S, 2.5-D 384-well ENR+CD organoid differentiation; type: cell-based, mouse; conditions: primary screen
From the text: as §1

ENR+CD organoids = assay: Primary screen: ATP (CellTiter-Glo 3D, CTG) cell number/viability, 2.5-D 384-well ENR+CD organoids; conditions: primary screen; for Z.CTG: standard z score;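 on all read-outs here: compounds given at plating and again on day 3 over a 6-day differentiation from ENR+CV stem-cell-enriched precursors, ATP measured on day 6, plate median as control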
[3] = dose 0.08 uM, FC vs plate median
[4] = dose 0.40 uM, FC vs plate median
[5] = dose 2.00 uM, FC vs plate median
[6] = dose 10.00 uM, FC vs plate median
[7] = dose 0.08 uM, FC relative to plate median
[8] = dose 0.40 uM, FC relative to plate median
[9] = dose 2.00 uM, FC relative to plate median
[10] = dose 10.00 uM, FC relative to plate median

Compound	Z.LYZ.NS ([1]; dose 0.08 uM)	Z.LYZ.NS ([1]; dose 0.40 uM)	Z.LYZ.NS ([1]; dose 2.00 uM)	Z.LYZ.NS ([1]; dose 10.00 uM)	Z.LYZ.NS (standard z score) ([1]; dose 0.08 uM)	Z.LYZ.NS (standard z score) ([1]; dose 0.40 uM)	Z.LYZ.NS (standard z score) ([1]; dose 2.00 uM)	Z.LYZ.NS (standard z score) ([1]; dose 10.00 uM)	Dose.FC.LYZ.NS (log2 fold change) ([1]; dose 0.08 uM)	Dose.FC.LYZ.NS (log2 fold change) ([1]; dose 0.40 uM)	Dose.FC.LYZ.NS (log2 fold change) ([1]; dose 2.00 uM)	Dose.FC.LYZ.NS (log2 fold change) ([1]; dose 10.00 uM)	Dose.FC.LYZ.S (log2 fold change) ([2]; dose 0.08 uM)	Dose.FC.LYZ.S (log2 fold change) ([2]; dose 0.40 uM)	Dose.FC.LYZ.S (log2 fold change) ([2]; dose 2.00 uM)	Dose.FC.LYZ.S (log2 fold change) ([2]; dose 10.00 uM)	Dose.FC.CTG (log2 fold change) (ENR+CD organoids; dose 0.08 uM)	Dose.FC.CTG (log2 fold change) (ENR+CD organoids; dose 0.40 uM)	Dose.FC.CTG (log2 fold change) (ENR+CD organoids; dose 2.00 uM)	Dose.FC.CTG (log2 fold change) (ENR+CD organoids; dose 10.00 uM)	further results
CC(C)CC(=O)Nc1[nH]nc2c1CN(C(=O)C1CCN(C)CC1)C2(C)C [PHA-793887]	0.275	0.085	−1.187	−2.324	–	–	–	–	–	–	–	–	–	–	–	–	–	–	–	–	Dose.FC.LYZ.NS [1, 3]: 0.032 log2 fold change; Dose.FC.LYZ.NS [1, 4]: 0.010 log2 fold change; Dose.FC.LYZ.NS [1, 5]: −0.136 log2 fold change; Dose.FC.LYZ.NS [1, 6]: −0.267 log2 fold change; Dose.FC.LYZ.S [2, 3]: 0.046 log2 fold change; Dose.FC.LYZ.S [2, 4]: 0.100 log2 fold change; Dose.FC.LYZ.S [2, 5]: −0.081 log2 fold change; Dose.FC.LYZ.S [2, 6]: −0.292 log2 fold change; Dose.FC.CTG (ENR+CD organoids; [3]): 0.113 log2 fold change; Dose.FC.CTG (ENR+CD organoids; [4]): 0.132 log2 fold change; Dose.FC.CTG (ENR+CD organoids; [5]): −0.144 log2 fold change; Dose.FC.CTG (ENR+CD organoids; [6]): −0.856 log2 fold change
Oc1nc(-c2ccc(C(F)(F)F)cc2)nc2c1CSCC2 [XAV-939]	–	–	–	–	0.505	0.177	−0.386	−1.142	–	–	–	–	–	–	–	–	–	–	–	–	Dose.FC.LYZ.NS ([1]; dose 0.08 uM): 0.058 log2 fold change; Dose.FC.LYZ.NS ([1]; dose 0.40 uM): 0.020 log2 fold change; Dose.FC.LYZ.NS ([1]; dose 2.00 uM): −0.044 log2 fold change; Dose.FC.LYZ.NS ([1]; dose 10.00 uM): −0.131 log2 fold change; Dose.FC.LYZ.S ([2]; dose 0.08 uM): 0.074 log2 fold change; Dose.FC.LYZ.S ([2]; dose 0.40 uM): 0.085 log2 fold change; Dose.FC.LYZ.S ([2]; dose 2.00 uM): −0.068 log2 fold change; Dose.FC.LYZ.S ([2]; dose 10.00 uM): −0.231 log2 fold change; Dose.FC.CTG (ENR+CD organoids; dose 0.08 uM): −0.332 log2 fold change; Dose.FC.CTG (ENR+CD organoids; dose 0.40 uM): −0.027 log2 fold change; Dose.FC.CTG (ENR+CD organoids; dose 2.00 uM): −0.355 log2 fold change; Dose.FC.CTG (ENR+CD organoids; dose 10.00 uM): −0.899 log2 fold change
S3I-201	0.445	0.527	0.212	−0.143	–	–	–	–	–	–	–	–	–	–	–	–	–	–	–	–	Dose.FC.LYZ.NS [1, 7]: 0.051 log2 fold change; Dose.FC.LYZ.NS [1, 8]: 0.061 log2 fold change; Dose.FC.LYZ.NS [1, 9]: 0.024 log2 fold change; Dose.FC.LYZ.NS [1, 10]: −0.016 log2 fold change; Dose.FC.LYZ.S [2, 7]: 0.033 log2 fold change; Dose.FC.LYZ.S [2, 8]: 0.157 log2 fold change; Dose.FC.LYZ.S [2, 9]: −0.004 log2 fold change; Dose.FC.LYZ.S [2, 10]: −0.052 log2 fold change; Dose.FC.CTG (ENR+CD organoids; [7]): 0.321 log2 fold change; Z.CTG (ENR+CD organoids; dose 0.08 uM): 0.766; Dose.FC.CTG (ENR+CD organoids; [8]): 0.160 log2 fold change; Z.CTG (ENR+CD organoids; dose 0.40 uM): 0.382; Dose.FC.CTG (ENR+CD organoids; [9]): 0.079 log2 fold change; Z.CTG (ENR+CD organoids; dose 2.00 uM): 0.188; Dose.FC.CTG (ENR+CD organoids; [10]): −0.140 log2 fold change; Z.CTG (ENR+CD organoids; dose 10.00 uM): −0.334
O=C(O)CCc1ccc(NCc2cccc(Oc3ccccc3)c2)cc1 [GW9508]	–	–	–	–	0.650	0.169	−0.092	−0.350	0.075	0.019	−0.011	−0.040	0.067	0.049	0.000	−0.045	0.063	0.174	−0.001	−0.059	Z.CTG (standard z score) (ENR+CD organoids; dose 0.08 uM): 0.151; Z.CTG (standard z score) (ENR+CD organoids; dose 0.40 uM): 0.417; Z.CTG (standard z score) (ENR+CD organoids; dose 2.00 uM): −0.003; Z.CTG (standard z score) (ENR+CD organoids; dose 10.00 uM): −0.140
CCc1c2c(nc3ccc(OC(=O)N4CCC(N5CCCCC5)CC4)cc13)-c1cc3c(c(=O)n1C2)COC(=O)[C@]3(O)CC [Irinotecan]	–	–	–	–	−0.272	−0.630	−1.476	−1.417	−0.031	−0.072	−0.170	−0.163	−0.004	−0.145	−0.247	−0.251	−0.111	−0.784	−0.785	−1.235	–
